The structures appear in SMILES notation. ≈ marks a conversion by molar mass, not a printed value. Read-outs that look alike come from different tables or passages of the source.

Data set [1] is described as follows: Urinary excretion, bile excretion and plasma level after oral administration to rats. Particulars: rat, 20 mg/kg, fasted; for dose excreted at 24 h: 0-24 hours. The class given is in vivo, Male JCL SD rats. As for the experimental part:
Male JCL SD atrain rats (age, 6 weeks) were used. Test compound was suspended in 0.5% methyl cellurose solution. The rats were atarved overnight before dosing with 20 mg /kg. Urine samples were collected at 0 to 6 and 6 to 24 hours after oral administration. Bile samples were collected at same interval as that of urine samples after a polyethylene cannula was inserted into the bile duct. Plasma samples were obtained by heart puncture at specified times after dosing. Concentrations of test compounds were measured by the disc-plate diffusion method using E. coli ATCC 39188 as test organism and nutrient agar (Difco) as the test medium. The diluents for standard curves were prepared with plasma from rat for determining the plasma levels, with 1/15 M phosphate buffer (pH7.0) for determining the urinary and biliary levels. The plate were incubated at 37° C. for 18 hours and the zone of inhibition were mesured and the recovery rate was calculated by comparing with the standard.

Data set [2] has as its system Methicillin susceptible S. aureus. The data set can be described thus: In vitro antibacterial activity (MIC), two-fold agar-plate dilution method, methicillin susceptible S. aureus. The class given is cell-based. Particulars: Staphylococcus aureus, HI-agar, 37° C., 20 hours, read-out: MIC (minimal inhibitory concentration). As for the experimental part: (§1) In vitro antibacterial activity were determined by the two-fold agar-plate dilution method as described below.
(§2) One loopful of an overnight culture of each test strain in Trypticase-soy broth (10^8 viable cells per ml) was streaked on heart infusion agar (HI-agar)containing graded concentrations of representative test compound, and the minimal inhibitory concentration (MIC) was expressed in terms of mg/ml after incubation at 37° C. for 20 hours.

The test system of the next data set is E. faecalis. The data set can be described thus: In vitro antibacterial activity (MIC), two-fold agar-plate dilution method, E. faecalis. The class given is cell-based. Particulars: Enterococcus faecalis, HI-agar, 37° C., 20 hours, read-out: MIC (minimal inhibitory concentration). How it is done:
as §1, §2

Setting [3] is: bile, read-out: Biliary recovery in 24 hours.
The mark [4] stands for this setting: urine, read-out: Urinary recovery in 24 hours.

As for `Nc1nc(/C(=N/O)C(=O)N[C@@H]2C(=O)N3C(C(=O)O)=C(SCc4cnn[nH]4)CS[C@H]23)c(Cl)s1` [(3)], the figures for the dose excreted at 24 h in data set [1] (setting [3]) and in data set [1] (setting [4]) were 37.5% and 7.62%, respectively. The MIC was 270 µg/mL (≈ 522 µM) in data set [2] and 2100 µg/mL (≈ 4060 µM) in the data set on E. faecalis.

Turning to `Nc1nc(/C(=N/O)C(=O)N[C@@H]2C(=O)N3C(C(=O)O)=C(SCc4cccnc4)CS[C@H]23)c(Cl)s1` [(2)], the results for the dose excreted at 24 h in data set [1] (setting [3]) and in data set [1] (setting [4]) were 19.6% and 17%, respectively. Moreover, the MIC in data set [2] was 230 µg/mL (≈ 436 µM); with E. faecalis, 2100 µg/mL (≈ 3980 µM).

In the case of `Nc1nc(/C(=N/O)C(=O)N[C@@H]2C(=O)N3C(C(=O)O)=C(SCc4cn[nH]c4)CS[C@H]23)c(Cl)s1` [(1)], the dose excreted at 24 h in data set [1] (setting [3]) was found to be 29%; in data set [1] (setting [4]) it was 39.7%. Also, in data set [1] (plasma), the AUC (in general, concentration integrated over time) was found to be 52900 ng·h/mL. In addition, the highest level in data set [1] (plasma) (Cmax) was 21800 ng/mL. The results for the MIC (in data set [2]; in the data set on E. faecalis) were 250 µg/mL (≈ 485 µM) and 2900 µg/mL (≈ 5620 µM), respectively.

The values above are taken from patent US6159961A, “Cephem compounds” (Fujisawa Pharmaceutical Co., Ltd., priority 1995, dated 2000).
